Laboratory results from the NIST ThermoML archive (doi:10.1021/je100556t).
± gives the expanded uncertainty stated by the source.

Details: 298.15 K; 101.33 kPa; Liquid

| Structure (SMILES) | molar volume |
| --- | --- |
| C1CCOC1 [tetrahydrofuran] | 8.174e-05 ± 4e-08 m3/mol |
| C1CCCCC1 [cyclohexane] | 0.0001088 ± 9e-08 m3/mol |
| CCO [ethanol] | 5.866e-05 ± 5e-08 m3/mol |

Now from value to compound:

| molar volume | Structure (SMILES) |
| --- | --- |
| 9.742e-05 ± 4e-08 m3/mol | CCOCCO [2-ethoxyethan-1-ol] |
| 7.926e-05 ± 3e-08 m3/mol | COCCO [2-methoxyethan-1-ol] |
